Source: patent US20130287757A1, “COMPOSITION FOR THE REGENERATION OF ATROPHIC TISSUES” (MEDESTEA INTERNAZIONALE S.P.A., priority 2011, published 2013)

B1: Papain FU (protein, UniProt P00784 134-345, looked up)
Papain: IPEYVDWRQKGAVTPVKNQGSCGSCWAFSAVVTIEGIIKIRTGNLNEYSEQELLDCDRRSYGCNGGYPWSALQLVAQYGIHYRNTYPYEGVQRYCRSREKGPYAAKTDGVRQVQPYNEGALLYSIANQPVSVVLEAAGKDFQLYRGGIFVGPCGNKVDHAVAAVGYGPNYILIKNSWGTGWGENGYIRIKRGTGNSYGVCGLYTSSFYPVKN

How the values were obtained:
[1] = system: biopsies from chronic atrophic ulcers (base and margins); assay: Western Blot phenotypic analysis of cultured biopsies; assay type: cell-based, animal; parameters: key: −−− = absence of band; −/+ = slight presence of band; + = thin band present; ++ = medium band present; +++ = broad band present; ++++ = high band present; +++++ = diffuse band present; conditions: 15 days culture
Method: The animal biopsy samples investigated are constituted of biopsies from chronic atrophic ulcers (base and margins). The biopsies were then sectioned into twelve parts ([…] controls, 1-11, and one sample, 12, to be treated for each patient) and suspended in a final volume of 25 ml of the respective culture solutions in plates (Lab-Tek chamber slides, Nunc, Kamstrup, Denmark) of 10 cm. Eleven types of control were prepared: • a negative control, untreated (1), i.e. treated exclusively with saline and antibiotics (as described above); • a positive control treated (2) with cell culture media commonly used for skin biopsies; • a control-3 treated with DMEM-LG/F 12 (1:1) culture medium and with the active ingredient described in Table 4. • a control-4 treated with DMEM-LG/F 12 (1:1) culture medium and with the active ingredient described in Table 5. • a control-5 treated with DMEM-LG/F 12 (1:1) culture medium and with the active ingredient described in Table 6. • a control-6 treated with DMEM-LG/F 12 (1:1) culture medium and with the active ingredient described in Table 7. • a control-8 treated with DMEM-LG/F 12 (1:1) culture medium and with the active ingredient described in Table 8. • a control-9 treated with DMEM-LG/F 12 (1:1) culture medium and with the active ingredient described in Table 9. • a control-10 treated with DMEM-LG/F12 (1:1) culture medium and with the active ingredient described in Table 10. • a control-11 treated with DMEM-LG/F12 (1:1) culture medium and with the active ingredient described in Table 11. One type of sample (12th portion of each biopsy investigated) was prepared, as follows: • sample-12: the biopsy findings of sample (12) were placed in plates (Lab-Tek chamber slides, Nunc, Kamstrup, Denmark) of 10 cm in culture medium in a solution Culture medium UL-MD. […] Two thirds of the culture medium was replaced every 7 days. All biopsy tissues used in culture constitute a possible optional substrate co-conditioning for the three-dimensional growth of the cellular samples investigated. […] After five washings, the membranes were incubated with the respective secondary antibodies (1:1000) conjugated with horseradish peroxidase (HRP, Santa Cruz, Calif., USA) for 1 h at room temperature, as shown below in Table 12.

[2] = system: biopsies from chronic atrophic ulcers (base and margins); assay: FACS of cell suspensions from cultured biopsies; assay type: cell-based, animal; conditions: for CK-1, FACS absolute value / CK-5, FACS absolute value / CK-10, FACS absolute value / CK-14, FACS absolute value / Collagen type I, FACS absolute value / Collagen type IV, FACS absolute value: geometric mean +/− Standard Deviation; for CK-1, FACS fluorescence as percentage value / CK-5, FACS fluorescence as percentage value / CK-10, FACS fluorescence as percentage value / CK-14, FACS fluorescence as percentage value / Collagen type I, FACS fluorescence as percentage value / Collagen type IV, FACS fluorescence as percentage value: relative to the isotypes, nonspecific fluorescence deducted
Method: The animal biopsy samples investigated are constituted of biopsies from chronic atrophic ulcers (base and margins).
The biopsies were then sectioned into twelve parts ([…] controls, 1-11, and one sample, 12, to be treated for each patient) and suspended in a final volume of 25 ml of the respective culture solutions in plates (Lab-Tek chamber slides, Nunc, Kamstrup, Denmark) of 10 cm.
One type of sample (12th portion of each biopsy investigated) was prepared, as follows: • sample-12: the biopsy findings of sample (12) were placed in plates (Lab-Tek chamber slides, Nunc, Kamstrup, Denmark) of 10 cm in culture medium in a solution Culture medium UL-MD.
All the findings were incubated for 15 days in a Heraeus incubator thermostatically controlled to a temperature of 37° C. with an atmosphere containing 5% of constant supply of CO2 (v/v in air). Two thirds of the culture medium was replaced every 7 days. All biopsy tissues used in culture constitute a possible optional substrate co-conditioning for the three-dimensional growth of the cellular samples investigated.
Cellular suspensions obtained after digestion with collagenase were transferred to 15-ml test tubes (Nunc, Kamstrup, Denmark) and fixed in 4% paraformaldehyde solution for 30 minutes at room temperature. After three washings with PBS (pH 7.4), the cells were permeabilized with Triton 0.1% for 15 minutes, […] at room temperature. The pellets of the samples (Sample, 12) and of the controls (CTRLs, 1-11) were resuspended to a final concentration of 5×10^5 cells/ml in PBS and incubated with the following primary antibodies (ABD serotec, Kidlington-Oxford, UK): anti-collagen type I, anti-collagen type anti-IV and anti-cytokeratins (CK)-1, -5, -10, -14. All monoclonal antibodies conjugated with R-phycoerythrin (PE) or fluorescein isothiocyanate (FITC) were used. Specific controls with the corresponding isotypes were divided for each monoclonal antibody (ABD serotec). The samples were submitted to quantitative analysis by a laser cytofluorometer (Epics profile II, Coulter, Hialeath, FL) at 488 nm, where the percentage of fluorescent cells (PFC) reflects the geometric mean of the field of interest. The threshold values (gates) were established using control samples labelled with the corresponding isotype. All the values were analysed with a minimum threshold of 15 000 cells.
The results relating to the expression of collagen type I, collagen type IV and of cytokeratins (CK) 1, 5, 10 and 14 were expressed with a quantitative scale relative to the fluorescence expressed as a percentage value relative to the isotypes, after deducting the assumed nonspecific fluorescence (specific gate), as follows: […]

| Molecule | CK-1 expression, Western Blot band [1] | CK-10 expression, Western Blot band [1] | CK-14 expression, Western Blot band [1] | Collagen type I expression, Western Blot band [1] | CK-1, FACS absolute value [2] | CK-5, FACS absolute value [2] | CK-10, FACS absolute value [2] | CK-14, FACS absolute value [2] | Collagen type I, FACS absolute value [2] | Collagen type IV, FACS absolute value [2] | CK-1, FACS fluorescence as percentage value [2] | CK-5, FACS fluorescence as percentage value [2] | CK-10, FACS fluorescence as percentage value [2] | CK-14, FACS fluorescence as percentage value [2] | Collagen type I, FACS fluorescence as percentage value [2] | Collagen type IV, FACS fluorescence as percentage value [2] | CK-5 expression, Western Blot band [1] | Collagen type IV expression, Western Blot band [1] |
| --- | --- | --- | --- | --- | --- | --- | --- | --- | --- | --- | --- | --- | --- | --- | --- | --- | --- | --- |
| O=C(O)c1ccccc1O [CTRL 4, Salicylic acid] | ++ | + | + | + | 29 +/− 7 | 6 +/− 5 | 9 +/− 7 | 11 +/− 8 | 12 +/− 3 | 9 +/− 8 | 14% | 0% | 1.9% | 1.25% | 3.9% | 0.3% |  |  |
| CC1(C)[C@@H](O)CC[C@]2(C)[C@H]3C(=O)C=C4[C@@H]5C[C@@](C)(C(=O)O)CC[C@]5(C)CC[C@@]4(C)[C@]3(C)CC[C@@H]12 [CTRL 8, Glycyrrhetic acid] | −/+ | + | −/+ | −/+ | 5 +/− 3 | 3 +/− 1 | 4 +/− 1 | 2 +/− 1 | 6 +/− 4 | 7 +/− 5 | 1% | 1% | 0.5% | 0.1% | 0.9% | 0.9% | −/+ | −/+ |
| [O]=[Zn] [CTRL 6, Zinc oxide powder] | + |  | + |  | 14 +/− 11 | 2 +/− 2 | 1 +/− 1 | 10 +/− 7 | 3 +/− 2 | 12 +/− 8 | 3% | 0% | 0% | 1.7% | 0.3% | 1.5% |  | + |
| B1 | + |  | + |  | 11 +/− 9 | 8 +/− 5 | 1 +/− 1 | 19 +/− 14 | 5 +/− 4- | 7 +/− 6 | 2% | 1.2% | 0% | 2% | 0.5% | 0.1% | + |  |
